Literature values in patent publication US20040086492A1, “Method of treating tumor and consignment system of proliferating and processing activated lymphocytes to be used in parallel to pdt” (priority 2001, published 2004).

Conditions: stated as a characteristic of Photofrin

- rate taken into cancerous tissue relative to normal tissue: approximately 10 times
Substance: porfirmer sodium [Photofrin]
